Measured values reported in patent publication US20230078764A1 (Yumanity Therapeutics, Inc., priority 2019, published 2023).
Where two headings read alike, the source gives them in different places.

Assays:
human SCD5 = target: T1, human SCD5 (Homo sapiens, UniProt Q86SK9); assay: Growth inhibition of yeast strain expressing human SCD5 as sole desaturase (OLE1 deleted), OD600 readout; type: cell-based
T1 construct: expressed in transfected cells; host or cells: yeast strain with OLE1 deleted, plasmid-borne human SCD5 (selected in SD-Ura)
T1 sequence (Q86SK9 1-330): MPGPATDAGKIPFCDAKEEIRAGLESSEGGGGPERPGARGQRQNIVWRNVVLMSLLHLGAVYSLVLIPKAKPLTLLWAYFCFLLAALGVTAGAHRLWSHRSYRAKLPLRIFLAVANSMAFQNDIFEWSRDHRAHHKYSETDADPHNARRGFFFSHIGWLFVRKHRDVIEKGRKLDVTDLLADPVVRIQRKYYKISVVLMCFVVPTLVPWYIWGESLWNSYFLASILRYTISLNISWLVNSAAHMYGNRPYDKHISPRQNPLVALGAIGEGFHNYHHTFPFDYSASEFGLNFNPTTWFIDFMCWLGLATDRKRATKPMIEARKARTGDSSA

human SCD1 = target: T2, human SCD1 (Homo sapiens, UniProt O00767); assay: Growth inhibition of yeast strain expressing human SCD1 as sole desaturase (OLE1 deleted), OD600 readout; type: cell-based
T2 construct: expressed in transfected cells; host or cells: yeast strain with OLE1 deleted, plasmid-borne human SCD1 (selected in SD-Ura)
T2 sequence (O00767 1-359): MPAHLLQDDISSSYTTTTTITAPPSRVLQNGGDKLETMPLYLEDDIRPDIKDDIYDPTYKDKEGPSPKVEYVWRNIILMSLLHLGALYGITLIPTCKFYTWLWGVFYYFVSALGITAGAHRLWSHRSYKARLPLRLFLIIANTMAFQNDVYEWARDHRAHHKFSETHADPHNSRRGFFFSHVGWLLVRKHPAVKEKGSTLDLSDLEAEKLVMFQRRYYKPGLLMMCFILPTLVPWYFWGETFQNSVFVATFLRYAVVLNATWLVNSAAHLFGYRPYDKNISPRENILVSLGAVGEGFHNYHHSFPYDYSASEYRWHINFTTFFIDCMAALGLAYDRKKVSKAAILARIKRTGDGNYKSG

[1] = yeast strain expressing human SCD5 as sole desaturase, growth (OD600) after 40 h at 30° C., read-out: SCD5 IC50
[2] = yeast strain expressing human SCD1 as sole desaturase, growth (OD600) after 40 h at 30° C., read-out: SCD1 IC50

| Compound | IC50 (human SCD5; [1]) [µM] | IC50 (human SCD1; [2]) [µM] | IC50 (human SCD5; SCD5 IC50) [µM] | IC50 (human SCD1; SCD1 IC50) [µM] |
| --- | --- | --- | --- | --- |
| COc1cc(C(=O)Nc2ccc(Cc3cccc(F)c3)cn2)nn(C)c1=O [Compound 127, N-(5-(3-fluorobenzyl)pyridin-2-yl)-5-methoxy-1-methyl-6-oxo-1,6-dihydropyridazine-3-carboxamide] | 0.22 | 3.12 |  |  |
| Cn1cc(C(=O)Nc2ccc(Cc3cccc(Cl)c3)cn2)cc(F)c1=O [Compound 128, N-(5-(3-chlorobenzyl)pyridin-2-yl)-5-fluoro-1-methyl-6-oxo-1,6-dihydropyridine-3-carboxamide] | 0.01 | 0.18 |  |  |
| N#Cc1ccc(C(=O)Nc2ccc(Cc3cccc(Cl)c3)cn2)nc1 [Compound 129, N-(5-(3-chlorobenzyl)pyridin-2-yl)-5-cyanopicolinamide] | 0.05 | > 45 |  |  |
| N#Cc1ccc(C(=O)Nc2ccc(Cc3ccc(F)c(Cl)c3)cn2)nc1 [Compound 130, N-(5-(3-chloro-4-fluorobenzyl)pyridin-2-yl)-5-cyanopicolinamide] | 0.04 | > 45 |  |  |
| O=C(Nc1ccc(Cc2cccc(Cl)c2)cn1)c1ccc(CO)nc1 [Compound 131, N-(5-(3-chlorobenzyl)pyridin-2-yl)-6-(hydroxymethyl)nicotinamide] | 0.01 | 0.01 |  |  |
| O=C(Nc1ccc(CO)nc1)c1ccc(Cc2cccc(Cl)c2)cn1 [Compound 132, 5-(3-Chlorobenzyl)-N-(6-(hydroxymethyl)pyridin-3-yl)picolinamide] | 0.01 | 0.01 |  |  |
| N#Cc1ccc(C(=O)Nc2ccc(Cc3cccc(F)c3)cn2)cc1 [Compound 133, 4-cyano-N-(5-(3-fluorobenzyl)pyridin-2-yl)benzamide] | 0.23 | > 45 |  |  |
| Cc1nccc(C(=O)Nc2ccc(Cc3cc(F)cc(C#N)c3)cn2)n1 [Compound 134, N-(5-(3-cyano-5-fluorobenzyl)pyridin-2-yl)-2-methylpyrimidine-4-carboxamide] | 0.01 | 0.09 |  |  |
| COCc1ccc(C(=O)Nc2ccc(Cc3cccc(Cl)c3)cn2)cn1 [Compound 136, N-(5-(3-chlorobenzyl)pyridin-2-yl)-6-(methoxymethyl)nicotinamide] | 0.49 | 1.26 |  |  |
| O=C(Nc1ccc(Cc2cccc(Cl)c2)cn1)c1ccc(CO)cn1 [Compound 137, N-(5-(3-chlorobenzyl)pyridin-2-yl)-5-(hydroxymethyl)picolinamide] |  |  | 0.01 | 0.01 |
| Cc1cnc(C(=O)Nc2ccc(Cc3ccc(F)c(Cl)c3)cn2)cn1 [Compound 138, N-(5-(3-chloro-4-fluorobenzyl)pyridin-2-yl)-5-methylpyrazine-2-carboxamide] | 0.08 | 0.55 |  |  |
| Cc1cnc(C(=O)Nc2ccc(Cc3cccc(F)c3)cn2)nc1 [Compound 139, N-(5-(3-fluorobenzyl)pyridin-2-yl)-5-methylpyrimidine-2-carboxamide] | 0.06 | 4.93 |  |  |
| Cn1cccc(C(=O)Nc2ccc(Cc3cccc(F)c3)cn2)c1=O [Compound 140, N-(5-(3-fluorobenzyl)pyridin-2-yl)-1-methyl-2-oxo-1,2-dihydropyridine-3-carboxamide] | 0.01 | 0.29 |  |  |
| Cc1ncc(C(=O)Nc2ccc(Cc3cccc(F)c3)cn2)cn1 [Compound 141, N-(5-(3-fluorobenzyl)pyridin-2-yl)-2-methylpyrimidine-5-carboxamide] | 0.16 | > 45 |  |  |
| O=C(Nc1ccc(Cc2cccc(F)c2)cn1)c1ccnnc1 [Compound 143, N-(5-(3-fluorobenzyl)pyridin-2-yl)pyridazine-4-carboxamide] | 0.37 | 0.51 |  |  |
| Cc1nccc(C(=O)Nc2ccc(Cc3cccc(F)c3)cn2)n1 [Compound 144, N-(5-(3-fluorobenzyl)pyridin-2-yl)-2-methylpyrimidine-4-carboxamide] | 0.01 | 0.01 |  |  |
| Cc1ccc(C(=O)Nc2ccc(Cc3cccc(F)c3)cn2)nn1 [Compound 145, N-(5-(3-fluorobenzyl)pyridin-2-yl)-6-methylpyridazine-3-carboxamide] | 0.1 | 1.71 |  |  |
| O=C(Nc1ccc(Cc2cccc(Cl)c2)cn1)c1ccc2nncn2c1 [Compound 146, N-(5-(3-chlorobenzyl)pyridin-2-yl)-[1,2,4]triazolo[4,3-a]pyridine-6-carboxamide] | 0.01 | 0.19 |  |  |
| O=C(Nc1ccc(Cc2ccc(F)c(F)c2)cn1)c1ccc2nncn2c1 [Compound 147, N-(5-(3,4-difluorobenzyl)pyridin-2-yl)-[1,2,4]triazolo[4,3-a]pyridine-6-carboxamide] | 0.04 | 0.31 |  |  |
| O=C(Nc1ccc(Cc2ccc(F)c(Cl)c2)cn1)c1ccc2nncn2c1 [Compound 148, N-(5-(3-chloro-4-fluorobenzyl)pyridin-2-yl)-[1,2,4]triazolo[4,3-a]pyridine-6-carboxamide] | 0.01 | 0.01 |  |  |
| O=C(Nc1ccc(Cc2cc(F)cc(F)c2)cn1)c1ccc2nncn2c1 [Compound 149, N-(5-(3,5-difluorobenzyl)pyridin-2-yl)-[1,2,4]triazolo[4,3-a]pyridine-6-carboxamide] | 0.01 | 0.23 |  |  |
| O=C(Nc1ccc2nncn2c1)c1ccc(Cc2cccc(Cl)c2)cn1 [Compound 150, N-([1,2,4]triazolo[4,3-a]pyridin-6-yl)-5-(3-chlorobenzyl)picolinamide trifluoroacetic Acid] | 0.01 | 0.02 |  |  |
| O=C(Nc1ccc(Cc2cccc(F)c2)cn1)c1ccc2nncn2c1 [Compound 151, N-(5-(3-fluorobenzyl)pyridin-2-yl)-[1,2,4]triazolo[4,3-a]pyridine-6-carboxamide] | 0.08 | 1.34 |  |  |
| Cn1ncc2cc(-c3ccc(Cc4cccc(F)c4)cn3)ccc21 [Compound 153, 5-(5-(3-fluorobenzyl)pyridin-2-yl)-1-methyl-1H-indazole] | 7.6 | 5.3 |  |  |
| O=C(Nc1ccc(Cc2cccc(F)c2)cn1)c1ccc2nccn2c1 [Compound 154, N-(5-(3-fluorobenzyl)pyridin-2-yl)imidazo[1,2-a]pyridine-6-carboxamide] | 14.6 | > 45 |  |  |
| O=C(Nc1ccc(Cc2cccc(Cl)c2)cn1)c1ccc2nccn2c1 [Compound 155, N-(5-(3-chlorobenzyl)pyridin-2-yl)imidazo[1,2-a]pyridine-6-carboxamide] | 7.8 | 24.7 |  |  |
| CN1N=C(C(=O)Nc2ccc(Oc3ccccc3Cl)cn2)CCC1=O [Compound 156, N-(5-(2-chlorophenoxy)pyridin-2-yl)-1-methyl-6-oxo-1,4,5,6-tetrahydropyridazine-3-carboxamide] | 28.1 | > 45 |  |  |
| CN1N=C(C(=O)Nc2ccc(Oc3cccc(Cl)c3)cn2)CCC1=O [Compound 157, N-(5-(3-chlorophenoxy)pyridin-2-yl)-1-methyl-6-oxo-1,4,5,6-tetrahydropyridazine-3-carboxamide] | 6.65 | > 45 |  |  |
| CN1N=C(C(=O)Nc2ccc(Oc3ccc(Cl)cc3)cc2)CCC1=O [Compound 158, N-(4-(4-chlorophenoxy)phenyl)-1-methyl-6-oxo-1,4,5,6-tetrahydropyridazine-3-carboxamide] | 6.19 | 10.5 |  |  |
